Measurements reported in patent publication US9783530B2, “Factor Xla inhibitors” (Merck Sharp & Dohme Corp., priority 2014, dated 2017).

Assays:
[1] = target: purified human Factor XIa (Homo sapiens (Human), UniProt P03951); test: Factor XIa Assay; assay type: biochemical; settings: purified human Factor XIa 40 pM, substrate Z-Gly-Pro-Arg-AFC, pH 7.4; read-out: FXIa IC50
Method: The effectiveness of a compound of the present invention as an inhibitor of Coagulation Factor XIa can be determined using a relevant purified serine protease, and an appropriate synthetic substrate. The rate of hydrolysis of the chromogenic or fluorogenic substrate by the relevant serine protease was measured both in the absence and presence of compounds of the present invention. Assays were conducted at room temperature or at 37° C. […] A decrease in the rate of fluorescence change in the presence of inhibitor is indicative of enzyme inhibition. Such methods are known to one skilled in the art. […]
Factor XIa determinations were made in 50 mM HEPES buffer at pH 7.4 containing 150 mM NaCl, 5 mM CaCl2, and 0.1% PEG 8000 (polyethylene glycol; JT Baker or Fisher Scientific). Determinations were made using purified human Factor XIa at a final concentration of 40 pM (Sekisui Diagnostics) and he synthetic substrate, Z-Gly-Pro-Arg-AFC, TFA salt (Sigma #C0980) at a concentration of 100 µM.
Activity assays were performed by diluting a stock solution of substrate at least tenfold to a final concentration ≦0.1 Km into a solution containing enzyme or enzyme equilibrated with inhibitor. Times required to achieve equilibration between enzyme and inhibitor were determined in control experiments. Initial velocities of product formation in the absence (Vo) or presence of inhibitor (Vi) were measured. Assuming competitive inhibition, and that unity is negligible compared Km/[S], [I]/e, and [I]/e (where [S], [I], and e respectively represent the total concentrations, of substrate, inhibitor and enzyme), the equilibrium constant (Ki) for dissociation of the inhibitor from the enzyme can be obtained from the dependence of Vo/Vi on [I] shown in the following equation.

[2] = target: purified Human plasma kallikrein (Homo sapiens (Human), UniProt P03952); test: Kallikrein Assay; assay type: biochemical; settings: purified Human plasma kallikrein 0.5 nM, substrate Acetyl-K-P-R-AFC, pH 7.4; read-out: P. KLK IC50
Sequence of purified Human plasma kallikrein (P03952 391-638): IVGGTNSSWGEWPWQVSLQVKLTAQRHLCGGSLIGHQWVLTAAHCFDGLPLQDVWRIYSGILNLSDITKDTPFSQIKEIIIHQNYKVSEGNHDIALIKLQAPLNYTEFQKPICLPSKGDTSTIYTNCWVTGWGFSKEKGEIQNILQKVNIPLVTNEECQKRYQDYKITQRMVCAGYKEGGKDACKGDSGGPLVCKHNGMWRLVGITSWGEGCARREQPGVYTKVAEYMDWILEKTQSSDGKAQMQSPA
Sequence of purified Human plasma kallikrein (P03952 20-390 partner): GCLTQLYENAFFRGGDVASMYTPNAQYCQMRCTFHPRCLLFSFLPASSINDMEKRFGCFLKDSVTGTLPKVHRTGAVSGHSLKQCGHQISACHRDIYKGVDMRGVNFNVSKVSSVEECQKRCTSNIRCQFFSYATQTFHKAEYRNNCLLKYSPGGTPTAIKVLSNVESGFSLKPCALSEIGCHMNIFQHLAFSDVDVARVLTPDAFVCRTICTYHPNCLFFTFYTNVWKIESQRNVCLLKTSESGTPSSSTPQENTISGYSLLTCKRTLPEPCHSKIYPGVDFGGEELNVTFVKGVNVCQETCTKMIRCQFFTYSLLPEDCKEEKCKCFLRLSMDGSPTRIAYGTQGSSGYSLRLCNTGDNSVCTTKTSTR
Method: The effectiveness of a compound of the present invention as an inhibitor of Kallikrein can be determined using a relevant purified serine protease, and an appropriate synthetic substrate. The rate of hydrolysis of the chromogenic or fluorogenic substrate by the relevant serine protease was measured both in the absence and presence of compounds of the present invention. Assays were conducted at room temperature or at 37° C. […] A decrease in the rate of fluorescence change in the presence of inhibitor is indicative of enzyme inhibition. Such methods are known to one skilled in the art. The results of this assay are expressed as the inhibitory constant, Ki.
Kallikrein determinations were made in 50 mM HEPES buffer at pH 7.4 containing 150 mM NaCl, 5 mM CaCl2, and 0.1% PEG 8000 (polyethylene glycol; Fisher Scientific). Determinations were made using purified Human plasma kallikrein at a final concentration of 0.5 nM (Enzyme Research Laboratories) and the synthetic substrate, Acetyl-K-P-R-AFC (Sigma # C6608) at a concentration of […].
Activity assays were performed by diluting a stock solution of substrate at least tenfold to a final concentration ≦0.2 Km into a solution containing enzyme or enzyme equilibrated with inhibitor. Times required to achieve equilibration between enzyme and inhibitor were determined in control experiments. The reactions were performed under linear progress curve conditions and fluorescence increase measured at 405 Ex/510 Em nm. Values were converted to percent inhibition of the control reaction (after subtracting 100% Inhibition value). IC50 was determined by inflection point from a four parameter logistic curve fit. Ki was calculated using the Cheng Prusoff equation, Ki=IC50/(1+([S]/Km)).

Sequence of purified human Factor XIa (P03951 388-625): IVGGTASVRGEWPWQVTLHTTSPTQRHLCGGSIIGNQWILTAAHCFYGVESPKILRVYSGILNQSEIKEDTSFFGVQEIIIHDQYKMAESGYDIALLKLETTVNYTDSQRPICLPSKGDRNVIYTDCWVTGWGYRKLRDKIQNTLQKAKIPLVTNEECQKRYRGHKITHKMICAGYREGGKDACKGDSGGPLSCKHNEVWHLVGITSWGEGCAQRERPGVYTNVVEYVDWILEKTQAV
Sequence of purified human Factor XIa (P03951 19-387 partner): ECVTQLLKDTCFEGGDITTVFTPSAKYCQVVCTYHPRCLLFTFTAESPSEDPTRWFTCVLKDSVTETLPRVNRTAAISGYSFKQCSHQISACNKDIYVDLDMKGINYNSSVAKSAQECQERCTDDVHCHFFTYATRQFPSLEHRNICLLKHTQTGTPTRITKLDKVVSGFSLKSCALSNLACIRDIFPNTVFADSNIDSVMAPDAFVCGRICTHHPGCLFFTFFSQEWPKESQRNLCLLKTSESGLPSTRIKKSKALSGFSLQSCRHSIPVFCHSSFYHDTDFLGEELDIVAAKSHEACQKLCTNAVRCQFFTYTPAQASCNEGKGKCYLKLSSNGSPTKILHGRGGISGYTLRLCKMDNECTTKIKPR

| IC50 [1] [nM] | IC50 [2] [nM] | Structure (SMILES) |
| --- | --- | --- |
| 109 | 91.4 | O=C(Nc1ccc2cn[nH]c2c1)C(Cc1ccccc1)c1ccc(-c2c(F)ccc(Cl)c2F)c[n+]1[O-] (racemic) [Example 5, 2-[5-(3-chloro-2,6-difluorophenyl)-1-oxidopyridin-2-yl]-N-1H-indazol-6-yl-3-phenylpropanamide] |
| 0.24 | 1.9 | O=C(Nc1ccc2cn[nH]c2c1)C(Cc1ccccc1)c1ccc(-c2cc(Cl)ccc2-n2cnnn2)c[n+]1[O-] (racemic) [Example 6, 2-{5-[5-chloro-2-(1H-tetrazol-1-yl)phenyl]-1-oxidopyridin-2-yl}-N-1H-indazol-6-yl-3-phenylpropanamide] |
| 30.6 | 1880 | NCc1ccc(Cl)cc1-c1ccc(C(CC2CC2)C(=O)Nc2ccc(C(=O)O)cc2)[n+]([O-])c1 (racemic) [Example 40, 4-[(2-{5-[2-(aminomethyl)-5-chlorophenyl]-1-oxidopyridin-2-yl}-3-cyclopropylpropanoyl)amino]benzoic acid] |
| 8.45 | 1610 | O=C(O)c1ccc(NC(=O)C(CC2CC2)c2ccc(-c3cc(Cl)ccc3-n3cc(CO)nn3)c[n+]2[O-])cc1 (racemic) [Example 42, 4-{[2-(5-{5-chloro-2-[4-(hydroxymethyl)-1H-1,2,3-triazol-1-yl]phenyl}-1-oxidopyridin-2-yl)-3-cyclopropylpropanoyl]amino}benzoic acid] |
| 0.19 | 25.1 | O=C(O)c1ccc(NC(=O)C(CC2CC2)c2ccc(-c3c(-n4cnnn4)ccc(Cl)c3F)c[n+]2[O-])cc1 (racemic) [Example 50, 4-[(2-{5-[3-chloro-2-fluoro-6-(1H-tetrazol-1-yl)phenyl]-1-oxidopyridin-2-yl}-3-cyclopropylpropanoyl)amino]benzoic acid] |
| 111 | 45 | O=C(NC12CCC(C(=O)O)(CC1)CC2)C(Cc1ccccc1)c1ccc(-c2c(F)ccc(Cl)c2F)c[n+]1[O-] (single isomer, unassigned) [Example 15, 4-({2-[5-(3-chloro-2,6-difluorophenyl)-1-oxidopyridin-2-yl]-3-phenylpropanoyl}amino) bicyclo[2.2.2]octane-1-carboxylic acid] |
| 0.76 | 144 | O=C(NC12CCC(C(=O)O)(CC1)CC2)C(Cc1ccccc1)c1ccc(-c2cc(Cl)ccc2-n2cnnn2)c[n+]1[O-] (single isomer, unassigned) [Example 17, 4-[(2-{5-[5-chloro-2-(1H-tetrazol-1-yl)phenyl]-1-oxidopyridin-2-yl}-3-phenylpropanoyl)amino] bicyclo[2.2.2]octane-1-carboxylic acid] |
| 4.1 | 9.2 | COC(=O)NC12CCC(NC(=O)C(Cc3ccccc3)c3ccc(-c4cc(Cl)ccc4-n4cnnn4)c[n+]3[O-])(CC1)CC2 (single isomer, unassigned) [Example 19, methyl {4-[(2-{5-[5-chloro-2-(1H-tetrazol-1-yl)phenyl]-1-oxidopyridin-2-yl}-3-phenylpropanoyl)amino]bicyclo[2.2.2]oct-1-yl}carbamate] |
| 9.39 | 24.6 | COc1cc(C(Cc2ccccc2)C(=O)Nc2ccc(C(=O)O)cc2)[n+]([O-])cc1-c1cc(Cl)ccc1C#N (single isomer, unassigned) [Example 23, 2-(1-((4-carboxyphenyl)amino)-1-oxo-3-phenylpropan-2-yl)-5-(5-chloro-2-cyanophenyl)-4-methoxypyridine 1-oxide] |
| 0.29 | 0.7 | COc1cc(C(Cc2ccccc2)C(=O)Nc2ccc(C(=O)O)cc2)[n+]([O-])cc1-c1cc(Cl)ccc1C#N (single isomer, unassigned) [Example 24, 2-(1-((4-carboxyphenyl)amino)-1-oxo-3-phenyl-propan-2-yl)-5-(5-chloro-2-cyanophenyl)-4-methoxypyridine 1-oxide] |
| 4.24 | 80.4 | N#Cc1ccc(Cl)c(F)c1-c1ccc(C(CC2CC2)C(=O)Nc2ccc(C(=O)O)cc2)[n+]([O-])c1 (single isomer, unassigned) [Example 30, 4-({2-[5-(3-chloro-6-cyano-2-fluorophenyl)-1-oxidopyridin-2-yl]-3-cyclopropylpropanoyl}amino)benzoic acid] |
| 3.37 | 692 | O=C(O)c1ccc(NC(=O)C(CC2CC2)c2ccc(-c3cc(Cl)ccc3-n3cnnn3)c[n+]2[O-])c(Cl)c1 (single isomer, unassigned) [Example 32, 3-chloro-4-[(2-{5-[5-chloro-2-(1H-tetrazol-1-yl)phenyl]-1-oxidopyridin-2-yl}-3-cyclopropylpropanoyl)amino]benzoic acid] |
| 5.65 | 408 | O=C(O)c1ccc(NC(=O)C(CC2CC2)c2ccc(-c3cc(Cl)ccc3-c3cnco3)c[n+]2[O-])cc1 (single isomer, unassigned) [Example 35, 4-[(2-{5-[5-chloro-2-(1,3-oxazol-5-yl)phenyl]-1-oxidopyridin-2-yl}-3-cyclopropylpropanoyl)amino]benzoic acid] |
| 18.9 | 830 | O=C(O)c1ccc(NC(=O)C(CC2CC2)c2ccc(-c3cc(Cl)ccc3OC(F)(F)F)c[n+]2[O-])cc1 (single isomer, unassigned) [Example 39, 4-[(2-{5-[5-chloro-2-(trifluoromethoxy)phenyl]-1-oxidopyridin-2-yl}-3-cyclopropylpropanoyl)amino]benzoic acid] |
| 18 | 3260 | O=C(O)c1ccc(NC(=O)C(CC2CC2)c2ccc(-c3cc(Cl)ccc3-n3cnnn3)c[n+]2[O-])cc1F (single isomer, unassigned) [Example 44, 4-[(2-{5-[5-chloro-2-(1H-tetrazol-1-yl)phenyl]-1-oxidopyridin-2-yl}-3-cyclopropylpropanoyl)amino]-2-fluorobenzoic acid] |
| 0.07 | 17.6 | O=C(O)c1ccc(NC(=O)C(CC2CC2)c2ccc(-c3cc(Cl)ccc3-n3cnnn3)c[n+]2[O-])cc1F (single isomer, unassigned) [Example 45, 4-[(2-{5-[5-chloro-2-(1H-tetrazol-1-yl)phenyl]-1-oxidopyridin-2-yl}-3-cyclopropylpropanoyl)amino]-2-fluorobenzoic acid] |
| 15.1 | 2350 | Cc1cc(C(=O)O)ccc1NC(=O)C(CC1CC1)c1ccc(-c2cc(Cl)ccc2-n2cnnn2)c[n+]1[O-] (single isomer, unassigned) [Example 47, 4-[(2-{5-[5-chloro-2-(1H-tetrazol-1-yl)phenyl]-1-oxidopyridin-2-yl}-3-cyclopropylpropanoyl)amino]-3-methylbenzoic acid] |
| 0.46 | 83.1 | Cc1cc(NC(=O)C(CC2CC2)c2ccc(-c3cc(Cl)ccc3-n3cnnn3)c[n+]2[O-])ccc1C(=O)O (single isomer, unassigned) [Example 48, 4-[(2-{5-[5-chloro-2-(1H-tetrazol-1-yl)phenyl]-1-oxidopyridin-2-yl}-3-cyclopropylpropanoyl)amino]-2-methylbenzoic acid] |
| – | 85.6 | O=C(O)c1ccc(NC(=O)C(CC2CC2)c2ccc(-c3cc(Cl)ccc3-n3cc(C(F)F)nn3)c[n+]2[O-])cc1 (single isomer, unassigned) [Example 52, 4-{[2-(5-{5-chloro-2-[4-(difluoromethyl)-1H-1,2,3-triazol-1-yl]phenyl}-1-oxidopyridin-2-yl)-3-cyclopropylpropanoyl]amino}benzoic acid] |
| 4.7 | 678 | O=C(O)c1ccc(NC(=O)C(CC2CC2)c2ccc(-c3cc(Cl)ccc3-n3ccnn3)c[n+]2[O-])cc1 (single isomer, unassigned) [Example 54, 4-[(2-{5-[5-chloro-2-(1H-1,2,3-triazol-1-yl)phenyl]-1-oxidopyridin-2-yl}-3-cyclopropylpropanoyl)amino]benzoic acid] |
